Data as given in patent US20080194585A1, “Fungicidal Pyrazine Derivatives” (priority 2005, published 2008).
Marks after values point to notes of the source that are not given here.

Tests used:
Plasmopara viticola = assay: Test D: grape downy mildew, spray after inoculation of grape seedlings; format: in vivo; settings: 100 = 100% disease control, 0 = no control; for Test D disease control rating: 40 ppm (marked *)
Source text: Upon removal, disease ratings were made. […] A dash (-) indicates no test results.

Phytophthora infestans = assay: whole plant or invertebrate; format: in vivo; settings: for Test F disease control rating: 100 = 100% disease control
Septoria tritici = assay: Test J: wheat leaf blotch, preventive spray on wheat seedlings; format: in vivo; settings: 100 = 100% disease control, 0 = no control; for Test J disease control rating: 40 ppm (marked *)
Source text: A dash (-) indicates no test results.

fusarium graminearium = assay: Test I: wheat head scab, preventive spray on wheat seedlings; settings: 100 = 100% disease control
Protocol: (the causal agent of wheat head scab) and incubated in a saturated atmosphere at 20° C. for 72 h, and then moved to a growth chamber at 22° C. for 5 days, after which disease ratings were made.

[1] = test system: Puccinia recondita f. sp. tritici; assay: Test K: wheat leaf rust, preventive spray on wheat seedlings; settings: for Test K disease control rating: 40 ppm (marked *), 100 = 100% disease control, 0 = no control
Septoria nodorum = assay: Test H: wheat glum blotch, preventive spray on wheat seedlings; settings: 100 = 100% disease control, 0 = no control
Protocol: (the causal agent of wheat glum blotch) and incubated in a saturated atmosphere at 20° C. for 48 h, and then moved to a growth chamber at 22° C. for 5 days, after which disease ratings were made.

[2] = test system: Erysiphe graminis f. sp. tritici; assay: Test L: wheat powdery mildew, preventive spray on wheat seedlings; settings: 100 = 100% disease control, 0 = no control; for Test L disease control rating: 40 ppm (marked *)
Pythium aphanidermatum = assay: Test A: bluegrass pythium blight, preventive spray on bluegrass seedlings; settings: for Test A disease control rating: 100 = 100% disease control
Rhizoctonia oryzae = assay: Test G: turf brown patch, preventive spray on creeping bent grass seedlings; settings: 100 = 100% disease control, 0 = no control; for Test G disease control rating: 40 ppm (marked *)
Protocol: (the causal agent of turf brown patch) and incubated in a saturated atmosphere at 27° C. for 24 h, and then moved to a growth chamber at 27° C. for 5 days, after which disease ratings were made.

[3] = test system: Colletotrichum orbiculare; assay: Test B: cucumber Colletotrichum anthracnose, preventive spray on cucumber seedlings; settings: 100 = 100% disease control, 0 = no control; for Test B disease control rating: 40 ppm (marked *)
Botrytis cinerea = assay: Test E: tomato botrytis, preventive spray on tomato seedlings; settings: 40 ppm (marked *); 100 = 100% disease control, 0 = no control
[4] = 40 ppm (marked *), 0 = no control
[5] = 200 ppm, 0 = no control relative to controls

Row | SMILES | Test D disease control rating (Plasmopara viticola) | Test F disease control rating (Phytophthora infestans; [4]) | Test J disease control rating (Septoria tritici) | Test I disease control rating (fusarium graminearium; [4]) | Test K disease control rating [1] | Test H disease control rating (Septoria nodorum; 40 ppm (marked *)) | Test L disease control rating [2] | Test A disease control rating (Pythium aphanidermatum; [4]) | Test G disease control rating (Rhizoctonia oryzae) | Test B disease control rating [3] | other results
1 | CC(C)Cn1c(-c2c(F)cccc2F)cnc(-n2cccn2)c1=O [Compound 342, 6-(2,6-Difluorophenyl)-1-(2-methylpropyl)-3-(1H-pyrazol-1-yl)-2(1H)-pyrazinone] |  |  |  |  |  |  |  |  |  |  | pest or weed control at 200 ppm (Plasmopara viticola; Plasmopara viticola, 168 h, 200 ppm, read-out: Test D disease control rating): 0%; pest or weed control at 200 ppm (Phytophthora infestans; Phytophthora infestans, in Solanum lycopersicum, topical, 144 h, read-out: Test F disease control rating): 0%; pest or weed control at 200 ppm (Septoria tritici; Zymoseptoria tritici, 528 h, 200 ppm, read-out: Test J disease control rating): 82%; pest or weed control at 200 ppm (fusarium graminearium; Fusarium, in Triticum aestivum, topical, 192 h, read-out: Test I disease control rating, 200 ppm, 0 = no control): 0%; pest or weed control at 200 ppm ([1]; Puccinia recondita, in Triticum aestivum, 192 h, read-out: Test K disease control rating): 98%; pest or weed control at 200 ppm (Septoria nodorum; Parastagonospora nodorum, in Triticum aestivum, topical, 168 h, read-out: Test H disease control rating, 200 ppm): 0%; pest or weed control at 200 ppm ([2]; Blumeria graminis, in Triticum aestivum, 168 h, read-out: Test L disease control rating, 200 ppm): 96%; pest or weed control at 200 ppm (Pythium aphanidermatum; Pythium aphanidermatum, 120 h, read-out: Test A disease control rating): 0%; pest or weed control at 200 ppm (Rhizoctonia oryzae; Waitea circinata, in Agrostis stolonifera, topical, 144 h, read-out: Test G disease control rating, 200 ppm): 95%; pest or weed control at 200 ppm ([3]; Colletotrichum orbiculare, in Cucumis sativus, 144 h, read-out: Test B disease control rating, 200 ppm): 0%
2 | O=c1c(-n2cccn2)nc(Cl)c(-c2c(F)cccc2F)n1Cc1ccccc1F [compound 330] | 0* % | 0* % | 100* % | 0* % | 100* % | 99* % | 71* % | 0* % | 41* % | 0* % | 
3 | Cc1ccn(-c2nc(Cl)c(-c3c(F)cccc3F)n(Cc3ccc(F)cc3)c2=O)n1 [compound 331] | 47* % | 0* % | 100* % | 0* % | 100* % | 100* % | 76* % | 0* % | 16* % | 90* % | 
4 | Cc1ccc(-n2c(-c3c(F)cccc3F)c(Cl)nc(-n3ccc(C)n3)c2=O)cc1 [compound 332] | 24* % | 0* % | 98* % | 0* % | 95* % | 94* % | 71* % | 0* % | 0* % | 0* % | 
5 | Cc1ccc(-n2c(-c3c(F)cccc3F)c(Cl)nc(-n3cccn3)c2=O)cc1 [compound 333] | 47* % | 0* % | 98* % | 0* % | 99* % | 99* % | 0* % | 0* % | 17* % | 37* % | 
6 | Cc1ccc(-n2c(-c3c(F)cccc3F)c(Cl)nc(-n3cccn3)c2=O)c(C)c1 [compound 334] | 0* % | 0* % | 96* % | 0* % | 91* % |  | 0* % | 0* % | 0* % | 0* % | Test H disease control rating (Septoria nodorum; 200 ppm): 0%
7 | Cc1ccc(-n2c(-c3c(F)cccc3F)c(Cl)nc(-n3ccc(C)n3)c2=O)c(C)c1 [compound 335] | 0* % | 0* % | 99* % | 0* % | 91* % | 98* % | 71* % | 0* % | 0* % | 0* % | 
8 | O=c1c(-n2cccn2)nc(Cl)c(-c2c(F)cccc2F)n1-c1cccc(F)c1 [compound 337] | 0* % | 0* % | 100* % | 0* % | 95* % | 99* % | 0* % | 0* % | 29* % | 76* % | 
9 | Cc1ccn(-c2nc(Cl)c(-c3c(F)cccc3F)n(-c3cccc(F)c3)c2=O)n1 [compound 338] | 0* % | 0* % | 98* % | 0* % | 99* % | 100* % | 0* % | 0* % | 16* % | 80* % | 
10 | O=c1c(-n2cccn2)nc(Cl)c(-c2c(F)cccc2F)n1-c1ccccc1F [compound 339] | 0* % | 0* % | 100* % | 0* % | 89* % | 99* % | 0* % | 0* % | 0* % | 0* % | 
11 | Cc1ccn(-c2nc(Cl)c(-c3c(F)cccc3F)n(-c3ccccc3F)c2=O)n1 [compound 340] | 0* % | 0* % | 95* % | 0* % | 95* % | 99* % | 0* % | 0* % | 0* % | 0* % | 
12 | Cc1ccn(-c2nc(Cl)c(-c3c(F)cccc3F)n(Cc3ccc(F)cc3)c2=O)n1 [compound 341] | 79* % | 0* % | 98* % | 0* % | 100* % | 99* % | 63* % | 0* % | 0* % | 52* % | 
13 | COc1ccccc1-n1c(-c2c(F)cccc2F)c(Cl)nc(-n2cccn2)c1=O [compound 393] |  |  | 33* % |  | 89* % | 73* % | 0* % |  | 0* % | 41* % | Test F disease control rating (Phytophthora infestans; [5]): 0%; Test I disease control rating (fusarium graminearium; [5]): 0%; Test E disease control rating (Botrytis cinerea): 29* %; Test A disease control rating (Pythium aphanidermatum; [5]): 0%
14 | COc1cccc(-n2c(-c3c(F)cccc3F)c(Cl)nc(-n3cccn3)c2=O)c1 [compound 394] |  |  | 100* % |  | 100* % | 100* % | 99* % |  | 47* % | 99* % | Test F disease control rating (Phytophthora infestans; [5]): 0%; Test I disease control rating (fusarium graminearium; [5]): 78%; Test E disease control rating (Botrytis cinerea): 99* %; Test A disease control rating (Pythium aphanidermatum; [5]): 0%
15 | COc1ccc(-n2c(-c3c(F)cccc3F)c(Cl)nc(-n3cccn3)c2=O)cc1 [compound 395] |  |  | 99* % |  | 99* % | 95* % | 0* % |  | 0* % | 57* % | Test F disease control rating (Phytophthora infestans; [5]): 0%; Test I disease control rating (fusarium graminearium; [5]): 0%; Test E disease control rating (Botrytis cinerea): 80* %; Test A disease control rating (Pythium aphanidermatum; [5]): 0%
16 | O=c1c(-n2cccn2)nc(Cl)c(-c2c(F)cccc2F)n1-c1ccccc1OC(F)(F)F [compound 396] |  |  | 85* % |  | 94* % | 89* % | 91* % |  | 0* % | 13* % | Test F disease control rating (Phytophthora infestans; [5]): 0%; Test I disease control rating (fusarium graminearium; [5]): 0%; Test E disease control rating (Botrytis cinerea): 70* %; Test A disease control rating (Pythium aphanidermatum; [5]): 0%
